The values that follow come from ChEMBL document CHEMBL3632530, “Synthesis and structure-activity relationship study of benzofuran-based chalconoids bearing benzylpyridinium moiety as potent acetylcholinesterase inhibitors” (Eur J Med Chem, 2015).

Chain of Acetylcholinesterase (P04058 whole entry): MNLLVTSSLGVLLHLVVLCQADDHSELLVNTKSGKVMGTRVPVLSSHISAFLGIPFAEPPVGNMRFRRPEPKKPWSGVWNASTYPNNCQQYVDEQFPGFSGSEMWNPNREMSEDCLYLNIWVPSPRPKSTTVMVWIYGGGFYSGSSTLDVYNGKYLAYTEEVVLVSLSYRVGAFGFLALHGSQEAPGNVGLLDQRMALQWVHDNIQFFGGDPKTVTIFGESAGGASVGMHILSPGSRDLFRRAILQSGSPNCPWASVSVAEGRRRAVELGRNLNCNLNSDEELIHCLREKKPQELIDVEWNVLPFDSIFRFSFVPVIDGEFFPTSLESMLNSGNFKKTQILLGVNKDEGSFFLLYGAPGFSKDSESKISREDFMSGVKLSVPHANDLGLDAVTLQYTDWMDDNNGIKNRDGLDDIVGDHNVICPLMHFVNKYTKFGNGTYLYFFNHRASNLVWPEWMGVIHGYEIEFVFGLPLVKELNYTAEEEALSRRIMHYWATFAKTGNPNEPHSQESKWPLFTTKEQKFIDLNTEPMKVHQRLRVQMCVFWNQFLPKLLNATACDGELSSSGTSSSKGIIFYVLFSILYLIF

The test addresses Acetylcholinesterase (Torpedo californica, UniProt P04058). The test can be described thus: Inhibition of Torpedo californica AChE (type VI-S) using acetylthiocholine iodide as substrate assessed as 5-thio-2-nitrobenzoate anion formation preincubated for 15 mins followed by substrate addition. Also noted: species or system Tetronarce californica.
In the case of `O=C(/C=C/c1ccc[n+](Cc2ccc(Br)cc2)c1)c1cc2cc(Br)ccc2o1`, the IC50 is 31 µM.
The value for `COc1cccc2cc(C(=O)/C=C/c3ccc[n+](Cc4ccccc4)c3)oc12` was 3.89 µM; that for `O=C(/C=C/c1cc[n+](Cc2ccccc2)cc1)c1cc2ccccc2o1` was 0.064 µM; that for `COc1cccc2cc(C(=O)/C=C/c3ccc[n+](Cc4ccc(Cl)cc4)c3)oc12` was 11.2 µM.
For `O=C(/C=C/c1ccc[n+](Cc2ccccc2)c1)c1cc2ccccc2o1` the value was 0.058 µM; for `O=C(/C=C/c1ccc[n+](Cc2ccccc2Br)c1)c1cc2cc(Br)ccc2o1`, 2.15 µM.
The value for `O=C(/C=C/c1cc[n+](Cc2cccc(Cl)c2Cl)cc1)c1cc2ccccc2o1` was 3.12 µM.
In the case of `O=C(/C=C/c1ccc[n+](Cc2cccc(Cl)c2Cl)c1)c1cc2cc(Br)ccc2o1`, the 50% inhibitory concentration (IC50) worked out at 2.85 µM.
For `O=C(/C=C/c1ccc[n+](Cc2ccccc2)c1)c1cc2cc(Br)ccc2o1` the value was 5.41 µM; for `O=C(/C=C/c1ccc[n+](Cc2ccc(Br)cc2)c1)c1cc2ccccc2o1`, 0.357 µM.
For the compound `COc1cccc2cc(C(=O)/C=C/c3ccc[n+](Cc4cccc(Cl)c4Cl)c3)oc12`, the IC50 is 0.985 µM.
For `COc1cccc2cc(C(=O)/C=C/c3ccc[n+](Cc4ccccc4Br)c3)oc12` the value was 0.027 µM; for `COc1cccc2cc(C(=O)/C=C/c3ccc[n+](Cc4ccc(Br)cc4)c3)oc12`, 10.7 µM.
For `O=C(/C=C/c1cc[n+](Cc2ccccc2)cc1)c1cc2cc(Br)ccc2o1` the value was 5.96 µM.
For `O=C(/C=C/c1ccc[n+](Cc2ccc([N+](=O)[O-])cc2)c1)c1cc2ccccc2o1` the value was 29.2 µM; for `O=C(/C=C/c1ccc[n+](Cc2ccc(Cl)c(Cl)c2)c1)c1cc2cc(Br)ccc2o1`, 0.786 µM; for `O=C(/C=C/c1cc[n+](Cc2ccccc2Br)cc1)c1cc2ccccc2o1`, 0.041 µM.
For `O=C(/C=C/c1ccc[n+](Cc2ccccc2Br)c1)c1cc2ccccc2o1`, the IC50 was 0.035 µM.
